Results: US10214495B2, “Anti-malarial agents” (MMV MEDICINES FOR MALARIA VENTURE, priority 2015, dated 2019)
≈ marks a conversion by molar mass, not a printed value. Where two headings read alike, the source gives them in different places.

Experiments:
[1] = system: P. falciparum NF54; assay: In vitro P. falciparum growth inhibition, sensitive NF54 strain; assay type: cell-based; settings: Plasmodium falciparum, read-out: P. fal. NF54 IC50
Experimental: (§1) The ability of aminopyrazine derivatives according to the invention to kill P. falciparum parasites and/or to inhibit its proliferation is assayed through their ability to inhibit Plasmodium falciparum growth. Compounds were screened against multidrug resistant (K1) and sensitive (NF54) strains of P. falciparum in vitro as described by Vennerstrom et al. 2004, Nature, 430, 900-904.

[2] = system: P. falciparum K1; assay: In vitro P. falciparum growth inhibition, multidrug resistant K1 strain; assay type: cell-based; settings: Plasmodium falciparum, read-out: P. fal K1 IC50
Experimental: as §1

[3] = target: hPI4KB (Homo sapiens, UniProt Q9UBF8); assay: PI4KB lipid kinase ADP-Glo assay; assay type: biochemical; settings: ATP 10 μM, PI substrate 50 μM
Sequence of hPI4KB (Q9UBF8 whole entry): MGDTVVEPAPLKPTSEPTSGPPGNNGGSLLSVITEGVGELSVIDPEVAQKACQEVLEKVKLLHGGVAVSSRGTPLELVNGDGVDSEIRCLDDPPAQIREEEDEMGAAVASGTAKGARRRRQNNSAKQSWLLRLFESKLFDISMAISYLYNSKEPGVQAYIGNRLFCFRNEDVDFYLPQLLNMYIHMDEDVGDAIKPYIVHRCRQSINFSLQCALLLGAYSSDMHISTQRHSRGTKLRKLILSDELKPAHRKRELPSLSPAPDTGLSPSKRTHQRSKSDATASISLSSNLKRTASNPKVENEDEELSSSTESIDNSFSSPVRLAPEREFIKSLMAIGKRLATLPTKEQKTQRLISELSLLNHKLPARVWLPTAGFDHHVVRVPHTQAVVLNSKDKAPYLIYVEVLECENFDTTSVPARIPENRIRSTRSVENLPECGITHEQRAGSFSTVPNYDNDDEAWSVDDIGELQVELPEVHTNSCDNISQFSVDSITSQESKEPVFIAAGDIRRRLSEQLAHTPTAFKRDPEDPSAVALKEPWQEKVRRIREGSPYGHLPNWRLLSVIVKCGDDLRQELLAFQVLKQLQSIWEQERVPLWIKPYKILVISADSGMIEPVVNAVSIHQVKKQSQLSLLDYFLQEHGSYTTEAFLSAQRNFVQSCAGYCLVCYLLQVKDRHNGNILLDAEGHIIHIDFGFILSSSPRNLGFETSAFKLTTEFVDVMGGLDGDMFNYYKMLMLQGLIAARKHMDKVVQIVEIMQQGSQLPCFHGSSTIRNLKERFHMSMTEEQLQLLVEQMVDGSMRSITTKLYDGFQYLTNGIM
Experimental: The compounds of the invention were tested on their ability to inhibit the human PI4K kinase. The non-radiometric ADP-Glo™ Assay (Promega, Madison, Wis., USA) was used for measuring the activity of the PI4KB lipid kinase. All kinase assays were performed in 96-well half-area microtiter plates from Greiner Bio-One (Frickenhausen, Germany) in a 25 μl reaction volume. The reaction cocktail was pipetted in 3 steps in the following order:
10 μl of ATP solution (in assay buffer, see below)
5 μl of test sample in 10% DMSO
10 μl of enzyme/substrate mixture
PI4KB assay contained 50 mM HEPES-NaOH, pH 7.5, 1 mM EGTA, 100 mM NaCl, 0.03% CHAPS, 2 mM DTT, ATP, 10 μM, PI4KB kinase, 20 ng/25 μL, PI substrate 50 μM. and3 mM MnCl2.
The reaction cocktails were incubated at 30° C. for 40 minutes. The reaction was stopped with 25 μl ADP-Glo reagent per well. Plates were incubated for 40 minutes at room temperature, followed by addition of 50 μl kinase detection reagent per well and incubation for further 60 minutes at room temperature. Signal was measured with a microplate multilable reader (Victor2, Perkin Elmer, Boston, Mass., USA), in luminescence mode.
All assays were performed with a BeckmanCoulter Biomek 2000/SL robotic system. The median value of the counts (n=8) of each assay plate was defined as “low control”. This value reflects unspecific binding of radioactivity to the plate in the absence of a protein kinase but in the presence of the substrate. […]
As part of the data evaluation the low control value from a particular plate was subtracted from the high control value as well as from all 80 “compound values” of the corresponding plate. The residual activity (in %) for each well of a particular plate was calculated by using the following formula (i): Res. Activity (%)=100×[(cpm of compound−low control)/(high control−low control)] […]
The residual activities for each concentration and the compound IC50 values were calculated using Quattro Workflow V3.1.0 (Quattro Research GmbH, Munich, Germany; www.quattro-research.com). […]

[4] = Kinetic solubility by HPLC; assay type: physicochemical; settings: kinetic from dmso stock, room temperature
Experimental: Dilutions were prepared to a theoretical concentration of 200 μM (n=2) in phosphate buffered saline (PBS) pH 6.5 (in 2% DMSO), in 0.01 M HCl pH 2 (in 2% DMSO) and in biologically relevant gastrointestinal media, fasted state simulated intestinal fluid, FaSSIF (in 2% DMSO). Calibration curves (11-220 μM) were prepared in DMSO. All dilutions were equilibrated at room temperature and mixed for 2 hours on an orbital shaker. The concentration of the test compounds was determined by HPLC using a Kinetex C18 column (2.1 mm×50 mm, 2.6 μm) at a column temperature of 35° C. An injection volume of 5 μL was used with a mobile phase flow rate of 0.6 mL/min. The mobile phase gradient method was as follows in Table 1: […]
Mobile phase A: 0.1% formic acid in 5% acetonitrile/water (v/v) (pH 3.1)
Mobile phase B: 0.1% formic acid in acetonitrile (pH 3.1)
Compound concentration (x) in the PBS/FASSIF/HC1 samples was calculated from the peak area (y) in the UV chromatogram by extrapolation from a three point calibration curve using the relationship: y=ax+b, where a is the slope and b is the intercept. Solubility was reported in the range <5-220 μM.

[5] = Pharmacokinetics in rats (iv and oral); assay type: in vivo; settings: rat; for Apparent T1/2 / Plasma Cl / Vd: 5.0 mg/kg iv
Experimental: Compounds of the invention were tested for their pharmacokinetics in rats according to the protocol below. Two different formulations were used to dose the compound of the invention as described in Table 3 below
Compound (1) was prepared for administration immediately prior to the experiment. The dose was prepared according to the average weight of the animals and an assumed volume of 350 μL of vehicle (IV) or 1000 μL of vehicle (oral). Volumes were adjusted io for each animal's individual weight to dose the compound at 5 mg/kg for the IV group (n=3 rats) and 20 mg/kg to the oral group (n=3). Water was supplied ad libitum, but animals were starved for 12 hours prior to dosing. Food was reinstated 5 hours post-dose.
The orally-treated animals were dosed by gavage with the drug introduced as a bolus. The IV-treated animals were anaesthetized and the drug was administered by infusion over a period of 2 minutes. Doses were staggered to allow for accurately timed sampling. Blood was collected at predetermined time-points to evaluate the kinetic profile over 24-48 hours. Blood sampling schedule, measured in hours post-dose, for the two groups of rats after the administration of Compound (1) are presented in Table 4 below:
Whole blood was collected via the tail vein into heparinised microcentrifugation tubes and stored on ice. Within 60 minutes of collection, samples were transferred to a freezer and stored at −80 ° C. until analysis was carried out via LC/MS/MS.
The extraction process was carried out on ice. To extract the drug for analysis, 30 μL of whole blood from each sample as well as from a series of standards and quality controls was transferred to a 96-well plate. A volume of 90 μL of cold methanol containing a suitable internal standard (approx. 60 ng/mL was added to each well and the plate was sealed and vortexed vigorously for 60 seconds to precipitate the proteins and release the compounds into the solvent). These were then centrifuged at 10000 G for 10 minutes to pellet the proteins and cellular debris, and the supernatant was transferred to a duplicate 96-well plate. The plate was transferred to the LC/MS/MS and held at 4° C. until all samples were injected onto the column.
LC/MS/MS analysis was carried out with 5 μL of each sample, using a method which was developed for simultaneous detection of compound (1) and the internal standard using a Phenomenex Hydro-RP column at 20° C. The mobile phase utilized acetonitrile containing 0.1% formic acid (v/v) as the organic component, and 0.1% (v/v) formic acid in water as the aqueous component. The mobile phase ran as a gradient at 400 μL/min, with the organic component increasing from 5% to 95% over 4 minutes before re-equilibration. The assay was calibrated over the range 2-6250 ng/mL (0.0056 μM-17.44 μM).

[6] = FaSSIF pH 6.5, 2% DMSO, read-out: Kinetic Solubility Fassif pH6.5
[7] = phosphate buffered saline, aqueous buffer, PBS pH 6.5, 2% DMSO, read-out: Kinetic Solubility pH 6.5
[8] = 20.0 mg/kg po vs 5.0 mg/kg iv (Reference 1 column prints iv)

SMILES | IC50 [1] [nM] | IC50 [2] [nM] | IC50 [3] [nM] | solubility kinetic at 2 h [4, 6] [µM] | solubility kinetic at 2 h [4, 7] [µM] | Apparent T1/2 [5] [h] | Plasma Cl [5] [mL/min/kg] | Vd [5] [L/kg] | Oral Bioavailability ([5]; […] po vs 5.0 mg/kg iv) [%] | Oral Bioavailability [5, 8] [%]
Nc1ncc(-c2ccc(C(=O)O)cc2)nc1-c1ccc(C(F)(F)F)cc1 [Compound (1), 4-(5-amino-6-(4-(trifluoromethyl)phenyl)pyrazin-2-yl)benzoic acid] | 33 | 32 | 7700 | 178 (≈ 64 µg/mL) | 180 (≈ 64.7 µg/mL) | 4.9 | 10.1 | 4.3 | 94 | 
Nc1ncc(-c2ccc(C(=O)O)cc2)nc1-c1ccc(C(F)(F)F)nc1 [Compound (2), 4-(5-amino-6-(6-(trifluoromethyl)pyridin-3-yl)pyrazin-2-yl)benzoic acid] | 26 | 24 | 23000 | 199 (≈ 71.7 µg/mL) | 187 (≈ 67.4 µg/mL) | 4.4 | 16.7 | 6.4 |  | 38
NC(=O)c1ccc(-c2cnc(N)c(-c3ccc(C(F)(F)F)cc3)n2)cc1 [Reference 1, reference compound] | 13 | 14 | 5000 | 115 (≈ 41.2 µg/mL) | < 5 | 1.0 | 39 | 3.5 |  | 25
